Target: T1, human sodium-dependent glucose transporter 2 (SGLT2, SLC5A2) (Homo sapiens, UniProt P31639)
T1 construct: Bases 21 to 2039 correspond to the complete coding region of human SGLT2; expressed in transfected cells; host or cells: CHO-TREx cells (Invitrogen), pcDNA4/TO vector, tetracycline-induced
T1 sequence (P31639 1-672): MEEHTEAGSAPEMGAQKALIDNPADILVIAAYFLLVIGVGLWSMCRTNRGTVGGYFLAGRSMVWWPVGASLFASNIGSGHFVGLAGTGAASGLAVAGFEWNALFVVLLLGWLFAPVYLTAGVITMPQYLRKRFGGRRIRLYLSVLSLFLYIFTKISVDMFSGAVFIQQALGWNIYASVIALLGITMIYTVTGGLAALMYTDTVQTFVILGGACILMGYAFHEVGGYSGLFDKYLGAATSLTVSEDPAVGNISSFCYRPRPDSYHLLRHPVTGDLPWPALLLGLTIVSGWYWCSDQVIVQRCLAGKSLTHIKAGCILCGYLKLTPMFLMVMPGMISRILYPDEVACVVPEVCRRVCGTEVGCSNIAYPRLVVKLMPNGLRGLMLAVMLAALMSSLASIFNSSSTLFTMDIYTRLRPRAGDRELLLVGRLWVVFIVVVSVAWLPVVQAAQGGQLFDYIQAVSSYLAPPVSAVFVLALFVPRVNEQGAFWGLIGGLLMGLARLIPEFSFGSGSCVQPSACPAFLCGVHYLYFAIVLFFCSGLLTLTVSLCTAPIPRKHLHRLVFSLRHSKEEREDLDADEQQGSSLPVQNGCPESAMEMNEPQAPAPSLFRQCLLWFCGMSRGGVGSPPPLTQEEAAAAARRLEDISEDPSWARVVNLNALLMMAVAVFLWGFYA
Assay: Inhibition of methyl-D-glucopyranoside uptake in CHO-TRex-hSGLT2 cells
Format: cell-based
Details: recombinant SGLT2; read-out: IC50 SGLT 2
From the text: Inhibition of the Transport Activity of the Human Sodium-Dependent Glucose Transporter 2 (SGLT2, SLC5A2) In Vitro
1. Cloning of an Expression Vector for Human SGLT2
The cDNA for human SGLT2 was introduced into the pcDNA4/TO vector (Invitrogen) by means of standard methods of molecular biology as described in Sambrook et al. (Molecular Cloning, A Laboratory Manual, Second Edition). […] Bases 21 to 2039 correspond to the complete coding region of human SGLT2.
2. Production of a Recombinant Cell Line with Inducible Expression of Human SGLT2
The expression vector for human SGLT2 was introduced into CHO-TREx cells (Invitrogen) by means of FuGene6 lipofection (Roche). To select single cell clones, 600 μg/ml of Zeocin (Invitrogen) was added to the cell culture medium (nutrient mixture F-12 (Ham), (Invitrogen) supplemented with 10% fetal calf serum (FBS Gold, PAA), 10 μg/ml Blasticidin S(CN Biosciences), 100 units/ml penicillin, 100 units/ml streptomycin). The functionality of the single cell clones resulting from the selection was tested via their uptake activity for radiolabeled methyl- -D-glucopyranoside. That cell clone with the highest uptake activity for methyl- -D-glucopyranoside, referred to hereinafter as CHO-TRex-hSGLT2, was selected for the further experiments and cultured further in the presence of 600 μg/ml Zeocin.
3. Measurement of the Inhibiting Action of Test Substances on the Uptake of Methyl- -D-glucopyranoside (-MDG)
CHO-TRex-hSGLT2 cells were seeded in cell culture medium in a concentration of 50 000 cells per well in Cytostar-T scintillating 96-well plates (Amersham Biosciences) and cultivated for 24 h. The expression of the recombinant human SGLT2 was induced by adding 1 μg/ml tetrazykline for a further 24 h. For -MDG uptake experiments, the cells were washed with PBS and then starved at 37° C. in starvation medium (PBS supplemented with 10% fetal calf serum) for 1 hour. […] After an incubation time of 120 min at 37° C., the reaction was stopped by adding 50 μl/well of 10 mM methyl- -D-glucopyranoside in transport assay buffer (4° C.), and the radioactivity taken up into the cells was determined in a MicroBeta Scintillation Microplate Reader (Wallac). The half-maximum inhibiting action of the test substances (IC50 value) was determined as follows:
4. […] This is the measurement in the absence of substance, measured in sodium-containing transport assay buffer.
5. […] This is the measurement in the absence of substance, measured in sodium-free transport assay buffer (140 mM choline chloride, 2 mM potassium chloride, 1 mM magnesium chloride, 1 mM calcium chloride, 10 mM HEPES/Tris, pH7.5). […]

| IC50 | SMILES |
| --- | --- |
| 34 nM | COc1ccc(Cc2ccccc2OC2OC(CO)C(F)C(O)C2O)cc1 (stereo not shown) [Example 1 of formula III] |
| 88 nM | COc1ccc(Cc2c(OC3OC(CO)C(F)C(O)C3O)n[nH]c2C(F)(F)F)cc1 (stereo not shown) [Example 5 of formula II] |
| 29 nM | CCc1ccc(Cc2ccccc2OC2OC(CO)C(F)C(O)C2O)cc1 (stereo not shown) [Example 20 of formula III] |
| 318 nM | CC(C)c1[nH]nc(OC2OC(CO)C(F)C(O)C2O)c1Cc1ccc(CCCC(=O)NC(CO)(CO)CO)cc1 (stereo not shown) [Example 21 of formula I] |

— patent US20120270819A1, “USE OF COMPOUNDS WITH SGLT-1/SGLT-2 INHIBITOR ACTIVITY FOR PRODUCING MEDICAMENTS FOR TREATMENT OF BONE DISEASE” (SANOFI, priority 2009, published 2012)
